Three molecules from PMC12300679, “Taurine-Based Hybrid Drugs as Potential Anticancer Therapeutic Agents: In Vitro, In Vivo Evaluations” (Pharmaceuticals, 2025) can be followed below.

In data set [1] the test system is M-HeLa human cervix carcinoma cells. Put plainly: MTT cytotoxicity assay, M-HeLa. The following applies: for IC50: Homo sapiens, M-HeLa, tested at 1–200 µM, three independent experiments; for SI (selectivity index) M-HeLa: M-HeLa versus normal WI38 cells. The class given is cell-based.
For data set [2], the system named is HuTu 80 human duodenal adenocarcinoma cells. Put plainly: MTT cytotoxicity assay, HuTu 80. In kind it is cell-based. The following applies: for IC50: Homo sapiens, HuTu80, MTT, tested at 1–200 µM, three independent experiments; for SI (selectivity index) HuTu 80: HuTu 80 versus normal WI38 cells.
The subject of data set [3] is HL-60 human promyelocytic leukemia cells. Put plainly: MTT cytotoxicity assay, HL-60. The class given is cell-based. The following applies: for IC50: Homo sapiens, HL-60, MTT, tested at 1–200 µM, three independent experiments. A general note: Formazan colour is commonly taken as a measure of viable cells.
Data set [4] concerns WI38 human fibroblast cell line. Put plainly: MTT cytotoxicity assay, normal WI38 cells. The class given is cell-based. The following applies: WI-38, tested at 1–200 µM, three independent experiments.
Data set [5] relates to RPMI 1788 human healthy donor peripheral blood leukocytes. Nature of the data set: MTT cytotoxicity assay, normal RPMI 1788 cells. The class given is cell-based. The following applies: tested at 1–200 µM, three independent experiments, read-out: IC50 RPMI 1788 (normal cell line).
Data set [6] can be described thus: Acute in vivo toxicity, single intraperitoneal administration. The following applies: mouse, ip, BDF1 mice, Behrens method, 14 d observation, read-out: half-lethal toxic dose (LD50). Here is the method:
Firstly, acute in vivo toxicity was determined in order to calculate doses for the determination of the potential antileukemia activity. An acute toxicity study was carried out on the mice of the BDF1 line weighing from 20 to 24 g. In the experiment, clinically healthy animals were used, which were treated under the same conditions. To evaluate LD50, the toxicity gain curve was plotted against increasing doses (the Behrens method) (Figure 3).
Acute toxicity was evaluated using mice of the BDF1 line weighing from 20 to 24 g. In the experiment, clinically healthy animals treated under the same conditions were used. A total of 4–6 animals were used for each dose. All experiments on animals were carried out according to the Nursery and Vivarium, Russian Academy of Sciences Federal Research Center of Problems of Chemical Physics and Medicinal Chemistry (FRC PCPMC RAS) and in accordance with the rules established by the Commission on Bioethics of the FRC PCPMC RAS. One day after administration of the specimen, the animals were continuously treated for 4 h. Then, death of animals and clinical pattern of intoxication were evaluated once a day for 14 d. The test compounds were added intraperitoneally once. The individual volume of each animal was calculated from the mass of the body and dose of the test compound.
The lethal dose (LD100) for all animals and the maximum tolerable dose (MTD) values were also evaluated. Results of the studies are given in the form of tables and graphs.

In data set [7] the test system is lymphatic leukemia P388. Nature of the data set: Antitumor activity, syngeneic lymphatic leukemia P388 in BDF1 mice. In kind it is in vivo, mouse. The following applies: for ILS / MST ± SD: i.p. days 1, 5, 9; for antileukemia / antitumor effect (in words): doses under study, i.p. Here is the method:
At the next stage, we evaluated them in vivo using syngeneic mouse leukosis P388, which plays an important role in the screening of potential antitumor agents. The antitumor effect of the synthesized compounds was evaluated according to the increase in the average lifespan (ILS, %) of tumor-bearing animals. Due to the fact that physiologically relevant solvent, such as water or physiological solution [49], can be used as a solvent for parenteral administration of substances, we chose only water-soluble compounds 4o–r for the in vivo study.
As model tumors for the determination of antitumor activity of phosphorus-containing derivatives of pyrrolidine, the strain of lymphatic leukemia P388 was chosen. Lymphatic leukemia P388 was transplanted into hybrid mice of the BDF1 line intraperitoneally in accordance with the standard procedure. The inoculum contained 10^6 tumor cells in isotonic solution of NaCl. […] In each experiment, the control group was represented by the cohort of animals with tumors not treated with the compounds. Each group consisted of six mice. The animals were inspected daily over at least 60 days. The effectiveness of therapy was evaluated by the number of surviving animals, as well as by the increase in the average lifespan (ILS%), which was evaluated as the percentage of the mean survival time (MST) of the treated group (t) as compared to the control group (c): […].

The mark [8] stands for this setting: dose 16 (table prints no unit; b71 mg/kg).
Setting [9] is: dose 22 (table prints no unit; b71 mg/kg).
The mark [10] stands for this setting: dose 34 (table prints no unit; b71 mg/kg).
Where [11] appears, read: dose 48 (table prints no unit; b71 mg/kg).
Setting [12] is: dose 72 (table prints no unit; b71 mg/kg).
Setting [13] is: dose 12 (table prints no unit; b71 mg/kg).
Where [14] appears, read: dose 17 (table prints no unit; b71 mg/kg).
[15] abbreviates: dose 27 (table prints no unit; b71 mg/kg).
Where [16] appears, read: dose 38 (table prints no unit; b71 mg/kg).
Where [17] appears, read: dose 57 (table prints no unit; b71 mg/kg).
[18] abbreviates: dose 10 (table prints no unit; b71 mg/kg).
[19] abbreviates: dose 15 (table prints no unit; b71 mg/kg).
Where [20] appears, read: dose 31 (table prints no unit; b71 mg/kg).
The mark [21] stands for this setting: dose 47 (table prints no unit; b71 mg/kg).

What is called IC50 is the midpoint of a concentration-inhibition curve. Broadly, the LD50 is the dose expected to kill half of the subjects tested. For the molecule `CCCCN(CCCC)CCS(=O)(=O)N1CCCC1P(=O)(c1ccccc1)c1ccccc1.Cl` (stereo not drawn) [Compound 4p, N-Butyl-N-(2-((2-(diphenylphosphoryl)pyrrolidin-1-yl)sulfonyl)ethyl)butan-1-aminium chloride], the IC50 in data set [1] (MTT) is 57 ± 4.6 µM; in data set [2], 94.4 ± 8.7 µM; in data set [3], 76.7 ± 6.1 µM; in data set [4], 63.2 ± 5.7 µM; in data set [5], 176 ± 3.4 µM. Also, the “SI (selectivity index) M-HeLa” value in data set [1] is on record as 1.1. Further, in data set [1] (MTT), the “cytotoxicity against M-HeLa (in words)” value was “moderate cytotoxicity”. Also, the “SI (selectivity index) HuTu 80” value in data set [2] is listed as “- ((-)—no selectivity)”. For the same molecule, the “SI (selectivity index) HL-60” value in data set [3] (HL-60 versus normal RPMI 1788 leukocytes) was 2.3. For the same molecule, the LD50 at 14 d in data set [6] amounted to 165 ± 18.2 mg/kg. The ILS in data set [7] (setting [8]) came to 100%; in data set [7] (setting [9]), 80%; in data set [7] (setting [10]) it was 75%; in data set [7] (setting [11]) it was 55%; in data set [7] (setting [12]), 42%. Moreover, the “MST ± SD” value was 20 ± 3.1 days in data set [7] (setting [8]); 18 ± 3.2 days in data set [7] (setting [9]); 17.5 ± 2.7 days in data set [7] (setting [10]); 15.5 ± 3.4 days in data set [7] (setting [11]); 14.2 ± 2.4 days in data set [7] (setting [12]). Further, the “antileukemia / antitumor effect (in words)” value in data set [7] is given as “exhibited antileukemia activity”.

Take `Cl.O=P(c1ccccc1)(c1ccccc1)C1CCCN1S(=O)(=O)CCN1CCCC1` (stereo not drawn) [Compound 4q, 1-(2-((2-(Diphenylphosphoryl)pyrrolidin-1-yl)sulfonyl)ethyl)pyrrolidin-1-ium chloride]: the concentration for half-maximal inhibition (IC50) in data set [1] (MTT), in data set [2], in data set [3], in data set [4] and in data set [5] was more than 100 µM in each case. Further, the LD50 at 14 d in data set [6] was found to be 215 ± 16.7 mg/kg. In addition, the ILS is −9% in data set [7] (setting [13]); 13% in data set [7] (setting [14]); 33% in data set [7] (setting [15]); 69% in data set [7] (setting [16]); 11% in data set [7] (setting [17]). Also, the “MST ± SD” value came to 8.3 ± 0.6 days in data set [7] (setting [13]); 10.3 ± 0.9 days in data set [7] (setting [14]); 12.2 ± 1.7 days in data set [7] (setting [15]); 15.5 ± 3.9 days in data set [7] (setting [16]); 10.2 ± 0.2 days in data set [7] (setting [17]). Further, the “antileukemia / antitumor effect (in words)” value in data set [7] is given as “exhibited antileukemia activity”.

On to `Cl.O=P(c1ccccc1)(c1ccccc1)C1CCCN1S(=O)(=O)CCN1CCCCC1` (stereo not drawn) [Compound 4r, 1-(2-((2-(Diphenylphosphoryl)pyrrolidin-1-yl)sulfonyl)ethyl)piperidin-1-ium chloride], for which the concentration for half-maximal inhibition (IC50) in data set [1] (MTT) is 96 ± 8.6 µM; in data set [2], 97.3 ± 8.2 µM; in data set [3], more than 100 µM; in data set [4], more than 100 µM; in data set [5], more than 100 µM. Besides, in data set [1], the “SI (selectivity index) M-HeLa” value is listed as more than 1. Moreover, the “SI (selectivity index) HuTu 80” value in data set [2] is more than 1. Further, the 50% lethal dose (LD50) at 14 d in data set [6] is 170 ± 12.1 mg/kg. For the same molecule, the ILS is −9% in data set [7] (setting [18]); −2% in data set [7] (setting [19]); 4% in data set [7] (setting [9]); 0% in data set [7] (setting [20]); −1% in data set [7] (setting [21]). The “MST ± SD” value in data set [7] (setting [18]) was 9.8 ± 0.2 days; in data set [7] (setting [19]), 10.5 ± 0.8 days; in data set [7] (setting [9]), 11.2 ± 0.8 days; in data set [7] (setting [20]), 10.8 ± 0.7 days; in data set [7] (setting [21]) it was 10.7 ± 0.8 days. Further, the “antileukemia / antitumor effect (in words)” value in data set [7] was “did not display antitumor effect”.
